Results: patent US8735609B2, “Bryostatin analogues, synthetic methods and uses” (The Board of Trustees of the Leland Stanford Junior …, priority 2007, dated 2014)

How the values were obtained:
MOLT-4 = assay: NCI human cancer cell line growth inhibition: MOLT-4 (Leukemia); format: cell-based; conditions: Homo sapiens
MDA-MB-231/ATCC = assay: NCI human cancer cell line growth inhibition: MDA-MB-231/ATCC (Breast); format: cell-based; conditions: Homo sapiens
T-47D = assay: NCI human cancer cell line growth inhibition: T-47D (Breast); format: cell-based; conditions: Homo sapiens, T47D
PKCδ-C1B = biological target: T1, PKCδ-C1B (Mus musculus, UniProt P28867); assay: PKCδ-C1B assay; format: binding
T1 construct: made in house
T1 sequence (P28867 231-281 limits assumed): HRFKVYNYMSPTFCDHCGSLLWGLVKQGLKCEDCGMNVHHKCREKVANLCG
Method: Phosphatidyl serine vesicles are prepared by the addition of phosphatidyl serine (10 mg/mL in chloroform, 0.4 mL) to a glass test tube followed by removal of the chloroform under a stream of nitrogen (5 min). […] The resulting solution is stored over ice. […] Stock solutions of compounds are diluted with absolute ethanol in glass in serial fashion. […] The tubes are incubated at 37° C. for 90 min. and then put on ice for 5 min. Each tube is then filtered separately through a pre-soaked filter disc. […] The filter is subsequently rinsed with cold 20 mM TRIS buffer (5 mL) dropwise. […] The filters are immediately counted in a scintillation counter (Beckman LS 6000SC). Counts per minute are averaged among three trials at each concentration.

NCI-H460 = format: cell-based, human; conditions: Homo sapiens; NCI-H460, NSC Lung; read-out: Growth inhibition (GI50)
OVCAR-8 = assay: NCI human cancer cell line growth inhibition: OVCAR-8 (Ovarian); format: cell-based; conditions: Homo sapiens
LOX IMVI = assay: NCI human cancer cell line growth inhibition: LOX IMVI (Melanoma); format: cell-based; conditions: Homo sapiens
SNB-19 = assay: NCI human cancer cell line growth inhibition: SNB-19 (CNS); format: cell-based; conditions: Homo sapiens
OVCAR-5 = assay: NCI human cancer cell line growth inhibition: OVCAR-5 (Ovarian); format: cell-based; conditions: Homo sapiens
SK-MEL-2 = assay: NCI human cancer cell line growth inhibition: SK-MEL-2 (Melanoma); format: cell-based; conditions: Homo sapiens
TK-10 = assay: NCI human cancer cell line growth inhibition: TK-10 (Renal); format: cell-based; conditions: Homo sapiens
BT-549 = assay: NCI human cancer cell line growth inhibition: BT-549 (Breast); format: cell-based; conditions: Homo sapiens
RPMI-8226 = assay: NCI human cancer cell line growth inhibition: RPMI-8226 (Leukemia); format: cell-based; conditions: Homo sapiens
CCRF-CEM = assay: NCI human cancer cell line growth inhibition: CCRF-CEM (Leukemia); format: cell-based; conditions: Homo sapiens
SF-268 = assay: NCI human cancer cell line growth inhibition: SF-268 (CNS); format: cell-based; conditions: Homo sapiens
MDA-MB-435 = assay: NCI human cancer cell line growth inhibition: MDA-MB-435 (Breast); format: cell-based; conditions: Homo sapiens
OVCAR-4 = assay: NCI human cancer cell line growth inhibition: OVCAR-4 (Ovarian); format: cell-based; conditions: Homo sapiens
A498 = assay: NCI human cancer cell line growth inhibition: A498 (Renal); format: cell-based; conditions: Homo sapiens
EKVX = assay: NCI human cancer cell line growth inhibition: EKVX (NSC Lung); format: cell-based; conditions: Homo sapiens
KM12 = assay: NCI human cancer cell line growth inhibition: KM12 (Colon); format: cell-based; conditions: Homo sapiens
SF-295 = assay: NCI human cancer cell line growth inhibition: SF-295 (CNS); format: cell-based; conditions: Homo sapiens
HS 578T = assay: NCI human cancer cell line growth inhibition: HS 578T (Breast); format: cell-based; conditions: Homo sapiens
K-562 = assay: NCI human cancer cell line growth inhibition: K-562 (Leukemia); format: cell-based; conditions: Homo sapiens, K562
HOP-92 = assay: NCI human cancer cell line growth inhibition: HOP-92 (NSC Lung); format: cell-based; conditions: Homo sapiens
COLO 205 = assay: NCI human cancer cell line growth inhibition: COLO 205 (Colon); format: cell-based; conditions: Homo sapiens
UACC-62 = assay: NCI human cancer cell line growth inhibition: UACC-62 (Melanoma); format: cell-based; conditions: Homo sapiens
CAKI-1 = assay: NCI human cancer cell line growth inhibition: CAKI-1 (Renal); format: cell-based; conditions: Homo sapiens
SW-620 = assay: NCI human cancer cell line growth inhibition: SW-620 (Colon); format: cell-based; conditions: Homo sapiens
PC-3 = assay: NCI human cancer cell line growth inhibition: PC-3 (Prostate); format: cell-based; conditions: Homo sapiens
U251 = assay: NCI human cancer cell line growth inhibition: U251 (CNS); format: cell-based; conditions: Homo sapiens, U-251
MI4 = assay: NCI human cancer cell line growth inhibition: MI4 (Melanoma); format: cell-based; conditions: Homo sapiens
SK-MEL-5 = assay: NCI human cancer cell line growth inhibition: SK-MEL-5 (Melanoma); format: cell-based; conditions: Homo sapiens
HCT-15 = assay: NCI human cancer cell line growth inhibition: HCT-15 (Colon); format: cell-based; conditions: Homo sapiens
SN12C = assay: NCI human cancer cell line growth inhibition: SN12C (Renal); format: cell-based; conditions: Homo sapiens
P388 cell line = assay: P388 murine lymphocytic leukemia cell assay; format: cell-based
Method: Cells from a P388 cell line (CellGate, Inc., Sunnyvale, Calif.) are grown in RPMI 1640 cell medium containing fetal calf serum (10%), L-glutamine, penicillin, streptomycin and are split twice weekly. All compounds are first diluted with DMSO. Later serial dilutions are done with a phosphate buffer solution (HYQ DPBS modified phosphate buffered saline). All dilutions are done in glass vials and the final DMSO concentration is always below 0.5% by volume. Final two-fold dilutions are done in a 96 well plate using cell media so that each well contains 50 μL. All compounds are assayed in quadruplicate over 12 concentrations. Cell concentration is measured using a hemacytometer and the final cell concentration is adjusted to 1×10^4 cells/mL with cell medium. The resulting solution of cells (50 μL) is then added to each well and the plates are incubated for 5 days in a 37° C., 5% CO2, humidified incubator (Sanyo CO2 incubator). MTT solution (3-[4,5-dimethylthiazol-2-yl]-2,5-diphenyltetrazolium bromide, 10 μL) is then added to each well and the plates are re-incubated under identical conditions for 2 h. To each well is then added acidified isopropanol (150 μL of i-PrOH solution containing 0.05 N HCl) and mixed thoroughly. The plates are then scanned at 595 nm and the absorbances are read (Wallac Victor 1420 Multilabel Counter). The resulting data is then analyzed to determine an ED50 value using the Prism software package (GraphPad).

IGROVI = assay: NCI human cancer cell line growth inhibition: IGROVI (Ovarian); format: cell-based; conditions: Homo sapiens
ACHN = assay: NCI human cancer cell line growth inhibition: ACHN (Renal); format: cell-based; conditions: Homo sapiens
SNB-75 = assay: NCI human cancer cell line growth inhibition: SNB-75 (CNS); format: cell-based; conditions: Homo sapiens
SK-OV-3 = assay: NCI human cancer cell line growth inhibition: SK-OV-3 (Ovarian); format: cell-based; conditions: Homo sapiens

`CCCCCCCC(=O)O[C@H]1/C(=C/C(=O)OC)C[C@H]2C[C@H](CO)OC(=O)C[C@H](O)C[C@@H]3CCC[C@H](C[C@@H]4CCO[C@H](/C=C/C(C)(C)[C@]1(O)O2)O4)O3` [Formula IIa (702.1)] gave a GI50 (MOLT-4) of less than 0.01 µM, a GI50 (MDA-MB-231/ATCC) of 2.04 µM and a GI50 (T-47D) of 9.55 µM. For the same molecule, the Ki (PKCδ-C1B) was 0.0003 ± 7e-05 µM, the “activity in PKCδ-C1B assay compared with the corresponding C26 methyl-containing analogue” value (PKCδ-C1B; vs Formula 1998a where R^3 is OH) was “significantly higher activity” and the GI50 (NCI-H460) was less than 0.01 µM. It also gave a GI50 (OVCAR-8) of 17 µM, a GI50 (LOX IMVI) of 3.39 µM and a GI50 (SNB-19) of 6.31 µM. For the same molecule, the GI50 (OVCAR-5) was 5.25 µM, the GI50 (SK-MEL-2) was 9.55 µM and the GI50 (TK-10) was 0.0933 µM. It also gave a GI50 (BT-549) of 19.5 µM, a GI50 (RPMI-8226) of 1.51 µM and a GI50 (CCRF-CEM) of 1.55 µM. It also gave a GI50 (SF-268) of 10.7 µM, a GI50 (MDA-MB-435) of 0.0219 µM and a GI50 (OVCAR-4) of 7.08 µM. It also gave a GI50 (A498) of 0.417 µM, a GI50 (EKVX) of 2.63 µM and a GI50 (KM12) of 4.57 µM. It also gave a GI50 (SF-295) of 0.891 µM, a GI50 (HS 578T) of 6.61 µM and a GI50 (K-562) of 0.0316 µM. For the same molecule, the GI50 (HOP-92) was 21.4 µM, the GI50 (COLO 205) was 0.0832 µM and the GI50 (UACC-62) was 7.76 µM. For the same molecule, the GI50 (CAKI-1) was 2 µM, the GI50 (SW-620) was 7.59 µM and the GI50 (PC-3) was 2.51 µM. For the same molecule, the GI50 (U251) was 3.98 µM, the GI50 (MI4) was 5.5 µM and the GI50 (SK-MEL-5) was 0.372 µM. For the same molecule, the GI50 (HCT-15) was 17.4 µM, the GI50 (SN12C) was 2.57 µM and the “activity in P388 assay compared with the corresponding C26 methyl-containing analogue” value (P388 cell line) was “significantly higher activity”. It also gave an EC50 (P388 cell line; Mus musculus, P388, 120 h, read-out: P388 Assay ED50) of 0.017 µM, a GI50 (IGROVI) of 13.2 µM and a GI50 (ACHN) of 1.15 µM. It also gave a GI50 (SNB-75) of 10.7 µM and a GI50 (SK-OV-3) of 50.1 µM.
